Measurements from paper PMC7498612, “A rationally designed bicyclic peptide remodels Aβ42 aggregation in vitro and reduces its toxicity in a worm model of Alzheimer’s disease” (Scientific Reports, 2020).
Where a SMILES comes first, the peptide text is derived from it.

How the values were obtained:
[1] = tested on: islet amyloid polypeptide, Aβ and α-synuclein; details: cited from earlier work
Text: In this study, we apply this design strategy to generate a bicyclic peptide capable of binding Aβ42 and of interfering with its aggregation process. The aggregation of Aβ42 is a complex process resulting from the combination of different microscopic steps and involving a variety of molecular species[35],[36]. […] Therefore, some therapeutic strategies aim at decreasing the concentrations of these oligomeric species by delaying or preventing their formatio ...

N2 worms = assay: C. elegans N2 control worms motility / fitness; type: in vivo; details: same concentration of DesBP (40 μM); compared to effect on Aβ worms
Text: We thus administered DesBP to Aβ worms at day 4 (D4) of adulthood, when Aβ42 aggregates are already formed, and paralysis is ongoing, and compared the resulting effects of the addition of DesBP to those observed in a control worm model, N2 (see “Materials and methods” section). […] On the other hand, the effects of the same concentration of DesBP to control N2 worms were negligible when compared to the effect observed on Aβ worms (Supplementary Fig. 12).
Media Standard conditions were used for the propagation of C. elegans. Briefly, the animals were synchronized by hypochlorite bleaching, hatched overnight in M9 (3 g/l KH2PO4, 6 g/l Na2HPO4, 5 g/l NaCl, […]) buffer, and subsequently cultured at 20 °C on nematode growth medium (NGM) (CaCl2 1 mM, MgSO4 1 mM, cholesterol 5 µg/ml, […] pH 6, Agar 17 g/L, NaCl 3 g/l, casein 7.5 g/l) plates seeded with the E. coli strain OP50. Saturated cultures of OP50 were grown by inoculating 50 mL of LB medium (tryptone 10 g/l, NaCl 10 g/l, yeast extract 5 g/l) with OP50 and incubating the culture for 16 h at 37 °C. NGM plates were seeded with bacteria by adding 350 µl of saturated OP50 to each plate and leaving the plates at 20 °C for 2–3 days. On day 3 after synchronization, the animals were placed on NGM plates containing 5-fluoro-2′deoxy-uridine (FUDR) (75 μM, unless stated otherwise) to inhibit the growth of offspring. […]

Aβ42 monomers = biological target: T1, Aβ42 monomers (Homo sapiens, UniProt P05067); assay: Bio-layer interferometry (BLI) binding of DesBP to sensor-coupled Aβ42 monomers; details: DesBP 50 and 100 μM, 30 °C
T1 construct: the 42-residue form of the amyloid β peptide (Aβ42)
Procedure: To test for direct peptide-peptide interaction, biolayer interferometry (BLI) was performed on the Octet RED96 System (ForteBio, Menlo Park, USA). DesBP was used as interaction partner for sensor-coupled Aβ42. Coupled sensors were first dipped into ForteBio kinetics buffer (PBS, 0.1% BSA, 0.02% Tween20 and 0.05% sodium azide, pH 7.4) to establish a stable baseline, then into different concentrations of DesBP and finally in pure kinetics buffer again to monitor dissociation. Both association and dissociation processes were monitored at 30 °C over 50 and 200 s, respectively. In the data analysis, all curves were globally fit with a 1:1 binding model.

Aβ42 = assay: ThT fluorescence aggregation kinetics of Aβ42; type: biochemical; details: ThT assay
Procedure: In order to investigate the effects of DesBP on the aggregation of Aβ42, we carried out in vitro aggregation assays using thioflavin T (ThT) as an amyloid-specific fluorescent probe[63],[64]. We monitored fibril formation for Aβ42 at a concentration of 2 µM in the absence and presence of a range of concentrations (0.25–16 fold excess) of DesBP at 37 °C under quiescent conditions, using a highly reproducible protocol previously described. We then validated our results by means of far-UV circular dichroism (CD) and atomic force microscopy (AFM).
Monomeric Aβ42 peptide solutions were prepared by dissolving the lyophilized peptide in 6 M GuHCl. A Superdex 75 10/300 GL column (GE Healthcare) was used to purify Aβ42 monomers from Aβ42 oligomers and salt with a flow rate of 0.5 ml/min, and eluted in 20 mM sodium phosphate buffer (pH 8) with 200 μM EDTA. By collecting the centres of the peaks, the monomeric Aβ42 concentrations were determined from the integrated peak area with ε280 = 1,495 L mol^−1 cm^−1. Aβ42 monomers were then diluted to the target concentration with buffer and 20 μM ThT was added from a 1 mM stock. […] Assays were carried out at 37 °C under quiescent conditions in a plate reader (Fluostar Optima; BMG Labtech). ThT fluorescence was measured through the bottom of the plate with 440 nm excitation and 480 nm emission filters, with five repeats per sample. […]

## CC(C)[C@@H](CC[C@@H](C)[C@H]1CC[C@H]2[C@@H]3[C@H](O)C[C@H]4C[C@@H](NCCCNCCCCNCCCN)CC[C@]4(C)[C@H]3CC[C@]12C)OS(=O)(=O)O [trodusquemine]
[1]
  modulation of aggregation process: redirecting them towards the formation of non-toxic aggregates

## CC[C@H](C)[C@@H]1NC(=O)CNC(=O)[C@H](CC(C)C)NC(=O)[C@H](CCCCN)NC(=O)[C@@H](NC(=O)[C@H](C)NC(=O)[C@H](C)NC(=O)[C@@H](N)CCCNC(=N)N)CSCc2cc3cc(c2)CSC[C@H](NC(=O)[C@H](C)NC(=O)[C@H](CCCCN)NC1=O)C(=O)N[C@@H]([C@@H](C)O)C(=O)N[C@@H](CO)C(=O)N[C@@H](C(C)C)C(=O)N[C@@H](Cc1ccc(O)cc1)C(=O)N[C@@H](Cc1c[nH]cn1)C(=O)N[C@@H](C)C(=O)N[C@H](C(=O)NCC(=O)NCC(=O)N[C@@H](CCCCN)C(=O)N[C@@H](CCCNC(=N)N)C(=O)N[C@@H](CCCNC(=N)N)C(=O)O)CSC3 [DesBP] (HELM PEPTIDE1{R.A.A.C.K.L.G.I.K.A.C.T.S.V.Y.H.A.C.G.G.K.R.R}|CHEM1{[c1c(C[*:1])cc(C[*:3])cc1C[*:2]]}$PEPTIDE1,CHEM1,4:R3-1:R1|PEPTIDE1,CHEM1,11:R3-1:R2|PEPTIDE1,CHEM1,18:R3-1:R3$$$V2.0)
N2 worms
  effect on control N2 worms: negligible
Aβ42 monomers; pH 7.4, single-exponential fit, read-out: dissociation rate kd
  koff: 0.06 ± 0.002 s⁻¹
Aβ42 monomers; Octet RED96, kinetics buffer PBS, 0.1% BSA, 0.02% Tween20, pH 7.4, association 50 s, dissociation 200 s, global fit 1:1 binding model, read-out: dissociation constant (KD)
  Kd: 640 ± 260 µM

## Cc1cc(C)cc(C)c1 [TMB, 1,3,5-trimethylbenzene]
Aβ42; Supplementary Fig. 7
  effect on Aβ42 aggregation (control compounds): slightly delayed the nucleation step of Aβ42 aggregation
Aβ42; Supplementary Fig. 7b
  magnitude of ThT fluorescence (control compound): did not show significant changes on the magnitude of ThT fluorescence

## O=C(O[C@@H]1Cc2c(O)cc(O)cc2O[C@@H]1c1cc(O)c(O)c(O)c1)c1cc(O)c(O)c(O)c1 [EGCG, epigallocatechin gallate]
[1]
  modulation of aggregation process: redirecting them towards the formation of non-toxic aggregates
